Series [1] is described as follows: Mouse Plasma Protein Binding Study. In kind it is in vitro ADME. Conditions: heparinized mouse plasma, pH 7.5, ultracentrifugation 37° C. 3 hours, read-out: Plasma Protein Binding, % bound (converted). The method, then: Stock solutions of the compound of Example 1, herein, and Compound A (the compound of Example 1 of WO 2018/109646), were prepared in dimethyl sulfoxide (DMSO) at a concentration of 1 mg/mL. Incubation mixtures were prepared by diluting the stock solution into heparinized mouse plasma to a concentration of 2000 ng/mL. The final concentration of DMSO was 0.2%. The thawed plasma was centrifuged to remove any debris. If necessary, the pH of the plasma sample was adjusted to approximately 7.5 with 1% aqueous phosphoric acid prior to use. Incubation mixtures were prepared. Triplicate 10 μL aliquots of each incubation mixture were collected and analyzed to verify initial compound concentration. Four aliquots of each incubation mixture were placed into separate polyallomer ultracentrifuge tubes. The incubation mixtures were centrifuged in a Beckman Type 42.2 Ti rotor at 42,000 rpm (214,361×g) at 37° C. for 3 hours with maximum acceleration and deceleration. […] The samples were quick frozen on solid carbon dioxide and stored at approximately −80° C. until analyzed by liquid chromatography/tandem mass spectroscopy (LC/MS/MS) for test compound concentration. Total recovery of compound from the ultracentrifugation tubes was calculated with the following formula: […]
Percent unbound (Fu) by ultracentrifugation was calculated with the following formula: […]

A short description of another series: Mouse PK Study. Conditions: male CD1 mice, 30 mg/kg oral suspension, blood. The format is in vivo. The method, then: All studies were conducted after review by the GSK Institutional Animal Care and Use Committee and in accordance with the GSK Policy on the Care, Welfare and Treatment of Laboratory Animals. The oral suspension pharmacokinetic study was carried out on a single study day; a total of three male CD1 mice were used.
(§1) The compounds used in this study were the compound of Example 1, herein, and Compound A (the compound of Example 1 of WO 2018/109646).
The oral suspension dose was prepared in 1% aqueous methylcellulose. Each animal received a nominal dose of 30 mg/kg (10 mL/kg dose volume) as an oral gavage. Blood samples (approximately 0.025 mL each) were collected from a tail vein. Blood samples were collected prior to dosing and at target times of 15, 30, 60, 120, 240, 480, and 1440 minutes following oral gavage. A 25 μL aliquot was added to a non-heparinized tube containing 25 μL water and quick frozen on solid carbon dioxide and stored at approximately −80° C. until analyzed by liquid chromatography/tandem mass spectroscopy (LC/MS/MS) for test compound concentration.
Pharmacokinetic parameters for all in vivo PK studies were calculated using non-compartmental methods with Phoenix WinNonlin version 6.1.0 or 8.1.0. All parameters were calculated using actual blood sampling times and actual dosages for each animal. […]

Another series in a line: Rat PK Study. In kind it is in vivo. Particulars: plasma, nominal 1 mg/kg 30-minute intravenous infusion; for MRT: read-out: Rat Pharmacokinetics MRT; for clearance: read-out: Rat Pharmacokinetics Total Clearance. As to the method:
All studies were conducted after review by the GSK Institutional Animal Care and Use Committee and in accordance with the GSK Policy on the Care, Welfare and Treatment of Laboratory Animals. This study was conducted with a crossover design on two study days with a one-day recovery period between each study day. At least three days prior to the start of the study, three rats received surgically implanted femoral vein, femoral artery, and gastric catheters for infusion of test molecules, blood sampling, and oral dose administration, respectively. Dose solutions were filtered prior to administration and the actual dosage administered to the animals was quantified. All PK parameters were calculated based on the actual dosage administered to each animal. Urine was collected from 0-24 h following iv administration from each animal for determination of renal clearance.
as §1
The dose for intravenous administration was prepared in 20% Cavitron™ and 5% DMSO. The intravenous dose formulation was filtered through a 0.22-micron polytetrafluoroethylene (PTFE) filter prior to administration. The dose for oral solution administration was prepared in 6% Cavitron™ and 5% DMSO and was filtered through a 0.22-micron VWR PTFE filter prior to administration.
Each animal received a nominal dose of 1 mg/kg (4 mL/kg dose volume) as a 30-minute intravenous infusion on study day one. On study day two, each animal received a nominal dose of 2 mg/kg (16 mL/kg dose volume) as an oral gavage. Blood samples (approximately 0.11 mL each) were collected from the femoral artery catheter. […] Plasma was isolated from blood by centrifugation and a 30 μL aliquot was transferred to a non-heparinized tube, quick frozen on solid carbon dioxide and stored at approximately −80° C. until analyzed by liquid chromatography/tandem mass spectroscopy (LC/MS/MS) for test compound concentration.
Pharmacokinetic parameters for all in vivo PK studies were calculated using non-compartmental methods with Phoenix WinNonlin version 6.1.0 or 8.1.0. All parameters were calculated using actual blood sampling times and actual dosages for each animal. The extrapolated area under the curve (AUC0-inf) was determined using unweighted linear regression analysis of at least three log transformed concentrations visually assessed to be on the linear portion of the terminal elimination slope. Oral solution bioavailability was calculated in a non-crossover fashion using the mean intravenous dose and AUC0-inf values from the two intravenously dosed animals for the monkey PK study and in a crossover fashion for the rat PK study.

What is called MRT is a mean duration of stay, worked out from the concentration-time curve. One may read the clearance as the volume of plasma or blood freed of the substance per unit of time.

Turning to `CC[C@@H]1CN(Cc2cc([C@@H](CC(=O)O)c3ccc4c(nnn4C)c3C)ccc2C)Cc2ncccc2O1` [Compound A, reference compound], the fraction unbound at 3 h, 2000 ng/mL in series [1] was 0.003. In addition, in the series “Mouse PK Study”, the “Mouse Pharmacokinetics Clearance/Bioavailability” value was 31 mL/min/kg. In the series “Rat PK Study”, the MRT amounted to 4 h and the clearance amounted to 1.9 mL/min/kg.
In the case of `CC[C@@H]1CN(Cc2cc([C@@H](CC(=O)O)c3ccc4c(nnn4C)c3C)ccc2C)Cc2nc(O)ccc2O1` [Example 1, (R)-3-(1,4-dimethyl-1H-benzo[d][1,2,3]triazol-5-yl)-3-(3-(((R)-2-ethyl-7-hydroxy-2,3-dihydropyrido[2,3-f][1,4]oxazepin-4(5H)-yl)methyl)-4-methylphenyl)propanoic acid], the fraction unbound at 3 h, 2000 ng/mL in series [1] was 0.084. The “Mouse Pharmacokinetics Clearance/Bioavailability” value in the series “Mouse PK Study” stood at 15.6 mL/min/kg. In “Rat PK Study”, the mean residence time (MRT) amounted to 6.5 h and the clearance stood at 5.2 mL/min/kg.

Values taken from US11945826B2, “Hydroxypyridoxazepines as NRF2 activators” (GLAXOSMITHKLINE INTELLECTUAL PROPERTY DEVELOPMENT LIMITED, priority 2019, dated 2024).
